Experimental data taken from ChEMBL document CHEMBL3244232, “Steric effects of substituents on phenethylamine hallucinogens. 3,4-(Methylenedioxy)amphetamine analogues alkylated on the dioxole ring” (J Med Chem, 1979).
Active and inactive are the calls of the source. The calls are words filed in the database; no cut-off is given here.

Tests used:
Mus musculus [1] = assay: Toxicity in Swiss Webster mouse assessed as mortality at 0.338 mmol/kg, ip after 5 mins; type: organism-based; settings: in vivo
Mus musculus [2] = assay: Toxicity in Swiss Webster mouse assessed as tremor at 0.675 mmol/kg, ip after 8 to 10 mins; type: organism-based; settings: in vivo
Mus musculus [3] = assay: Toxicity in Swiss Webster mouse assessed as clonic convulsions at 0.675 mmol/kg, ip after 8 to 10 mins; type: organism-based; settings: in vivo
Mus musculus [4] = assay: Toxicity in Swiss Webster mouse assessed as recovery at 0.675 mmol/kg, ip after 30 mins; type: organism-based; settings: in vivo, 0.5 h
Mus musculus [5] = assay: Effect on Swiss Webster mouse assessed as sleeping at 0.675 mmol/kg, ip after 1 hr; type: ADME, organism-based; settings: in vivo
Mus musculus [6] = assay: Toxicity in Swiss Webster mouse assessed as occasional tremor at 0.3 mmol/kg, ip up to 20 mins; type: organism-based; settings: in vivo
Mus musculus [7] = assay: Toxicity in Swiss Webster mouse assessed as clonic convulsions at 0.3 mmol/kg, ip up to 20 mins; type: organism-based; settings: in vivo
Mus musculus [8] = assay: Effect on Swiss Webster mouse assessed as sleeping at 0.3 mmol/kg, ip after 20 mins; type: ADME, organism-based; settings: in vivo
Mus musculus [9] = assay: Induction of hyperactivity in Swiss Webster mouse assessed as salivation at <0.3 mmol/kg, ip up to 90 mins; type: functional, organism-based
Mus musculus [10] = assay: Induction of hyperactivity in Swiss Webster mouse assessed as exopthalmia at <0.3 mmol/kg, ip up to 90 mins; type: functional, organism-based
Mus musculus [11] = assay: Induction of hyperactivity in Swiss Webster mouse assessed as piloerection at <0.3 mmol/kg, ip up to 90 mins; type: functional, organism-based
Mus musculus [12] = assay: Induction of hyperactivity in Swiss Webster mouse assessed as sniffing at <0.3 mmol/kg, ip up to 90 mins; type: functional, organism-based
Mus musculus [13] = assay: Induction of hyperactivity in Swiss Webster mouse assessed as grooming at <0.3 mmol/kg, ip up to 90 mins; type: functional, organism-based
Mus musculus [14] = assay: Induction of hyperactivity in Swiss Webster mouse assessed as exploratory behavior at <0.3 mmol/kg, ip up to 90 mins; type: functional, organism-based
Mus musculus [15] = assay: Toxicity in Swiss Webster mouse assessed as depression at <0.3 mmol/kg, ip up to 90 mins; type: organism-based; settings: in vivo, 1.5 h
Mus musculus [16] = assay: Effect on Swiss Webster mouse assessed as sleeping at <0.3 mmol/kg, ip up to 90 mins; type: ADME, organism-based; settings: in vivo, 1.5 h
[17] = Chemical stability of the compound at 0.1 M at pH 5.3 at 37 degC after 24 hrs by 1H NMR spectroscopy; type: physicochemical; settings: buffer, pH 5.3, 24 h
[18] = Octanol-water partition coefficient, log P of the compound; type: physicochemical
Mus musculus [19] = assay: Induction of spontaneous activity in Swiss Webster mouse assessed as spontaneous activity counts at 0.025 mmol/kg, ip measured over 90 mins; type: functional
Mus musculus [20] = assay: Induction of spontaneous activity in Swiss Webster mouse assessed as spontaneous activity counts at 0.075 mmol/kg, ip measured over 90 mins; type: functional
Mus musculus [21] = assay: Induction of spontaneous activity in Swiss Webster mouse assessed as spontaneous activity counts at 0.225 mmol/kg, ip measured over 90 mins; type: functional
Mus musculus [22] = assay: Induction of spontaneous activity in Swiss Webster mouse assessed as spontaneous activity counts at 0.30 mmol/kg, ip measured over 90 mins; type: functional
Mus musculus [23] = assay: Toxicity in Swiss Webster mouse assessed as mortality at 0.675 mmol/kg, ip after 5 mins; type: organism-based; settings: in vivo
[24] = Toxicity in ip dosed Swiss Webster mouse after 5 mins; type: organism-based; settings: in vivo
Mus musculus [25] = assay: Induction of hyperactivity in Swiss Webster mouse assessed as exopthalmia at 0.025 to 0.3 mmol/kg, ip up to 90 mins; type: functional, organism-based
Mus musculus [26] = assay: Induction of hyperactivity in Swiss Webster mouse assessed as exploratory behavior at 0.025 to 0.3 mmol/kg, ip up to 90 mins; type: functional, organism-based
Mus musculus [27] = assay: Induction of hyperactivity in Swiss Webster mouse assessed as pilomotor erection at 0.025 to 0.3 mmol/kg, ip up to 90 mins; type: functional, organism-based
Mus musculus [28] = assay: Induction of hyperactivity in Swiss Webster mouse assessed as sniffing at 0.025 to 0.3 mmol/kg, ip up to 90 mins; type: functional, organism-based
Mus musculus [29] = assay: Induction of hyperactivity in Swiss Webster mouse assessed as salivation at 0.025 to 0.3 mmol/kg, ip up to 90 mins; type: functional, organism-based
Mus musculus [30] = assay: Induction of hyperactivity in Swiss Webster mouse assessed as grooming at 0.025 to 0.3 mmol/kg, ip up to 90 mins; type: functional, organism-based
Mus musculus [31] = assay: Effect on Swiss Webster mouse assessed as sleeping at 0.025 to 0.3 mmol/kg, ip; type: ADME, organism-based; settings: in vivo
Mus musculus [32] = assay: Induction of hyperactivity in Swiss Webster mouse assessed as salivation at 0.225 to 0.3 mmol/kg, ip up to 90 mins; type: functional, organism-based
Mus musculus [33] = assay: Induction of hyperactivity in Swiss Webster mouse assessed as grooming at 0.225 to 0.3 mmol/kg, ip up to 90 mins; type: functional, organism-based
Mus musculus [34] = assay: Induction of hyperactivity in Swiss Webster mouse assessed as exopthalmia at 0.225 to 0.3 mmol/kg, ip up to 90 mins; type: functional, organism-based
Mus musculus [35] = assay: Toxicity in Swiss Webster mouse assessed as ataxia at 0.675 mmol/kg, ip after 2 to 3 mins; type: organism-based; settings: in vivo
Mus musculus [36] = assay: Toxicity in Swiss Webster mouse assessed as tremor at 0.675 mmol/kg, ip after 2 to 3 mins; type: organism-based; settings: in vivo
Mus musculus [37] = assay: Toxicity in Swiss Webster mouse assessed as symmetric clonic convulsions with vocalization at 0.675 mmol/kg, ip after 2 to 3 mins; type: organism-based; settings: in vivo

Row | SMILES | logP [18] | Activity (Mus musculus [19]) | Activity (Mus musculus [20]) | Activity (Mus musculus [21]) | Activity (Mus musculus [22]) | Activity (Mus musculus [23]) | MTD at 5 min [24] | Activity (Mus musculus [25]) | Activity (Mus musculus [26]) | Activity (Mus musculus [27]) | Activity (Mus musculus [28]) | Activity (Mus musculus [29]) | Activity (Mus musculus [30]) | also measured
1 | CC(N)Cc1ccc2c(c1)OC(C)(C)O2 (centres undefined) | 2.6 | 30 min⁻¹ | 27 min⁻¹ | 17 min⁻¹ | 33 min⁻¹ | Toxic | 338 µmol/kg | – | – | – | – | – | – | Activity (Mus musculus [1]): Toxic; Activity (Mus musculus [2]): Toxic; Activity (Mus musculus [3]): Toxic; Activity (Mus musculus [4]): Non-toxic; Activity (Mus musculus [5]): Non-toxic; Activity (Mus musculus [6]): Toxic; Activity (Mus musculus [7]): Toxic; Activity (Mus musculus [8]): Non-toxic; Activity (Mus musculus [9]): inactive; Activity (Mus musculus [10]): inactive; Activity (Mus musculus [11]): inactive; Activity (Mus musculus [12]): inactive; Activity (Mus musculus [13]): inactive; Activity (Mus musculus [14]): inactive; Activity (Mus musculus [15]): Toxic; Activity (Mus musculus [16]): Non-toxic; Stability [17]: Stable
2 | CC(N)Cc1ccc2c(c1)OCO2 (centres undefined) [TENAMFETAMINE] | 1.64 | 64 min⁻¹ | 276 min⁻¹ | 105 min⁻¹ | – | – | – | Active | Active | Active | Active | Active | Active | –
3 | CC(N)Cc1ccc2c(c1)OC(C)O2 (centres undefined) | 2.1 | 39 min⁻¹ | 25 min⁻¹ | 94 min⁻¹ | 192 min⁻¹ | Toxic | 300 µmol/kg | Active | Active | Active | Active | Active | Active | Activity (Mus musculus [31]): Non-toxic; Activity (Mus musculus [32]): Active; Activity (Mus musculus [33]): Active; Activity (Mus musculus [34]): Active; Activity (Mus musculus [35]): Toxic; Activity (Mus musculus [36]): Toxic; Activity (Mus musculus [37]): Toxic
